Results published in patent US8846125B2, “Enaminocarbonyl compounds and their use” (Instytut Chemii Organicznej, Polska Akademia Nauk, priority 2009, dated 2014).

Tests used:
Format in all cases: in vivo, healthy men
[1] = tested on: perception of sweet taste (panel members); test: Qualitative evaluation of the perception of sweet taste by a 5-volunteer panel; parameters: key to Perception of sweet taste: +: perception of sweet taste; ++: very strong perception of sweet taste; −: absence of sweet taste; conditions: 4000 ppm solution in 20% ethanol, 5 panel members; for Perception of sweet taste: 10 ml mouth rinse 20 s
Description: Compounds according to the present invention destined for testing of their taste perception modifying properties were re-crystallized from ethanol or an ethanol-water mixture.
Qualitative evaluation of the perception of sweet taste; the examined substances were dissolved in a 20% ethanol and water mixture (vol./vol.).
Three initial solutions were formulated, containing: • the compound of example 1 (3-benzylaminomethylenedihydrofuran-2-one, 4000 ppm solution-400 mg in 100 ml 20% ethanol), • compound of example 2 ((R)-3-(1-phenylethylamino)methylenedihydrofuran-2-one, 4000 ppm solution-400 mg in 100 ml 20% ethanol), • compound of example 6 (2-benzylaminomethylenecyclopentanone, 4000 ppm solution−400 mg in 100 ml 20% ethanol).
Solutions of lower concentrations were obtained through dilution, to appropriate proportions, of the initial solutions with a 20% mixture of ethanol and distilled water (vol./vol.).
(§1) Evaluation of the degree of sweetness of the compounds according to the present invention was performed using a 5-volunteer panel—healthy men—henceforth referred to as panel members. All panel members were informed of the need to maintain safety procedures during the evaluation of the compounds according to the present invention, In particular, of the need to avoid swallowing the tested solutions. Each of the panel members received a 10 ml sample of a solution in a small vial and rinsed out their mouth with the entire contents of the vial for 20 seconds and then spit out the tested solution. Next, they carefully rinsed out their mouth with a large volume of distilled water (at least 150 ml) for at least 30 seconds. When the panel member felt that they no longer perceived any taste, they could proceed with the evaluation of the next solution.
During the first stage, the panel members qualitatively examined the taste of the three initial solutions containing 4000 ppm of a compound according to the present invention. The panel members all agreed that the solutions have an intensive sweet taste.
An additional qualitative evaluation was made of compounds according to the present invention from examples 4, 7 and 9, and compounds from comparative examples 1-19, in the form of 4000 ppm solutions. […] Solutions of compounds from the comparative examples lack a sweet taste.

[2] = tested on: sweet taste of sweet-tasting products (panel members); test: Inhibition of sweet taste of sweet products, commercial sweeteners and sweet compounds by the compound of example 3; parameters: key to Perceived sweet taste: ++: Strong perception of sweet taste; key to Perception of sweet taste following the addition of the compound of example 3: <<+: Weak or absent perception of sweet taste; conditions: for Perceived sweet taste: without compound of example 3
Description: Evaluation of the degree of sweetness of the compounds according to the present invention was performed using a 5-volunteer panel-healthy men-henceforth referred to as panel members. All panel members were informed of the need to maintain safety procedures during the evaluation of the compounds according to the present invention, In particular, of the need to avoid swallowing the tested solutions. Each of the panel members received a 10 ml sample of a solution in a small vial and rinsed out their mouth with the entire contents of the vial for 20 seconds and then spit out the tested solution. Next, they carefully rinsed out their mouth with a large volume of distilled water (at least 150 ml) for at least 30 seconds. When the panel member felt that they no longer perceived any taste, they could proceed with the evaluation of the next solution. Solutions of sweet products were prepared (saccharose, glucose, bee honey, glycine), by dissolving 100 mg of the product in 5 ml 20% aqueous ethanol. Two solutions are prepared of each product. One of these solutions is supplemented with a compound according to example 3 of the present invention (100 mg). Next, the taste of both solutions is compared for evaluating the qualitative perception of the taste of both solutions, proceeding according to the procedure established above, for the qualitative evaluation of the perception of sweet taste. The study results are compiled in Table 4. Solutions of commercially available sweeteners were prepared (“Sweet Top®” containing aspartame and […]®” containing sorbitol, sodium cyclamate and sodium saccharinate), by dissolving 5 mg of the sweetener in 20 ml of 20% aqueous ethanol. Each sweetener solution was made up twice. One of these solutions was supplemented with a compound according to example 3 of the present invention (5 mg). Next, the taste of both solutions was evaluated proceeding according to the procedure shown above, for the qualitative evaluation of the perception of sweet taste. The study results are compiled in Table 4. Solutions of compounds with a sweet taste according to the present invention were prepared (compounds of examples 1, 2 and 6), dissolving 5 mg of the compound according to the present invention in 20 ml 20% of aqueous ethanol. Two solutions were made of each compound of examples 1, 2 and 6. One of these solutions was supplemented with the compound of example 3 according to the present invention (5 mg). Next, the taste of both solutions was evaluated proceeding according to the above procedure for the qualitative evaluation of the perception of sweet taste. The study results are compiled in Table 4.

[3] = tested on: perception of sweetness (panel members); test: Comparative analysis of the intensity of the sweet taste against a 10% saccharose reference solution; conditions: for Results of sweetness comparisons against the reference solution [+] (sample sweeter) / Results of sweetness comparisons against the reference solution [=] (unable to tell) / Results of sweetness comparisons against the reference solution [−] (sample less sweet): count out of 10 comparative tests, reference 10% saccharose in 20% ethanol
From the text: During the next stage, we performed a comparative analysis of the intensity of the sweet taste. In the study we used the compound of example 1 (3-benzyl-aminomethylenedihydrofuran-2-one). The subject of the study consisted of samples of the initial 4000 ppm solution, and samples of diluted solutions containing 2000, 1000, 800 and 500 ppm of the compound of example 1.
The reference solution comprised 10% saccharose (wt./wt.) in 20% ethanol, containing 100000 ppm (wt./wt.) saccharose.
The study operator gave the panel members samples of the compound with the formula 1 marked with randomly generated 3-digit numbers, and also samples of the reference solution of saccharose in order to compare the perception of sweetness to the saccharose reference solution. Each of the 5 panel members received for comparison random samples of the solutions of the compound of example 1, twice, containing 4000 ppm, 2000 ppm, 1000 ppm, 800 ppm and 500 ppm of the compound. Each concentration was thus examined in 10 comparative tests.
The task for each panel member was to determine whether a given sample is less or more sweet than the reference solution. Each of the panel members completed a form according to the following rules: if a sample was sweeter, then he placed a plus sign [+] beside the symbol of the sample, if it was less sweet, a minus sign [−], and if in doubt, an equal sign [=]. Similar to the qualitative analysis, each of the panel members received a sample of 10 ml of a solution in a small vial, gently rinsed his mouth out with it for 20 seconds and then spat out the tested solution. Next, he carefully rinsed out his mouth with a large volume of distilled water (at least 150 ml) for at least 30 seconds. When the panel member felt that he no longer perceived any taste, he could proceed with the evaluation of the next solution.

[4] = tested on: sweet taste of saccharose (panel members); test: Inhibition of sweet taste of a saccharose solution, qualitative panel evaluation; parameters: key to Inhibition of sweet taste: ++: complete inhibition of sweet taste; −: lack of inhibition of sweet taste; conditions: 100 mg saccharose in 5 ml 20% aqueous ethanol plus 100 mg compound, vs saccharose solution without compound
Description: as §1
The inhibition of sweet taste of sweet substances or mixtures thereof by inhibitors of sweet taste according to the present invention was examine qualitatively according to the following procedure. Two samples of saccharose, each of 100 mg, are dissolved in 5 ml 20% of aqueous ethanol, and then one solution is supplemented with 100 mg of a compound of an example according to the present invention (compounds from examples 3, 5, and 8). Next, the taste of both solutions is evaluated using the procedure presented above, for the qualitative perception of a sweet taste. […] The study was also performed on compounds from comparative examples 1-19.

[5] = 5 mg in 20 ml 20% aqueous ethanol plus 5 mg compound of example 3
[6] = 5 mg in 20 ml 20% aqueous ethanol
[7] = approximate interpretation of the dilution series, comparison with a 10% saccharose solution in 20% ethanol
[8] = 100 mg product in 5 ml 20% aqueous ethanol plus 100 mg compound of example 3
[9] = 100 mg product in 5 ml 20% aqueous ethanol

Structure (SMILES): O=C1OCCC1=CNCc1cccnc1 [Example 9, 3-(3-pirydylomethyl)aminomethylenedihydrofuran-2-one]
- Bitter side taste [1]: somewhat bitter
- Taste of the solution as described by the panel members [1]: significantly less sweet than the solution of 3-benzylaminomethylenedihydrofuran-2-one
- Bitter side taste ([1]; listed as example 9): admixture of a bitter taste
- Perception of sweet taste [1]: +

Structure (SMILES): C[C@@H](NC=C1CCOC1=O)c1ccccc1 [Example 2, (R)-3-(1-phenylethyl)aminomethylenedihydrofuran-2-one]
- Perception of sweet taste [1]: ++
- Perception of sweet taste following the addition of the compound of example 3 [2, 5]: <<+
- Sweet taste of the solution with an addition of the compound of example 3 (in words) [2, 5]: does not exhibit a sweet taste
- Perceived sweet taste [2, 6]: ++
- Times sweeter than saccharose [3, 7]: 200-250 times

Structure (SMILES): C[C@H](NC=C1CCOC1=O)c1ccccc1 [Example 3, (S)-3-(1-phenylethyl)aminomethylenedihydrofuran-2-one]
- Inhibition of sweet taste [4]: ++
- Taste of the saccharose solution with the compound [4]: practically not sweet at all

Structure (SMILES): C[C@@H](NC=C1CCCC1=O)c1ccccc1 [Example 7, (R)-2-(1-phenylethyl)aminomethylenecyclopentanone]
- Taste of the solution as described by the panel members [1]: intensively sweet taste
- Perception of sweet taste [1]: ++

Structure (SMILES): O=C1OCCC1=CNCc1ccccc1 [Example 1, 3-Benzylaminomethylenedihydrofuran-2-one]
- Perception of sweet taste [1]: ++
- Perception of sweet taste following the addition of the compound of example 3 [2, 5]: <<+
- Sweet taste of the solution with an addition of the compound of example 3 (in words) [2, 5]: only a trace perceived sweet taste
- Perceived sweet taste [2, 6]: ++
- Results of sweetness comparisons against the reference solution [+] (sample sweeter) ([3]; 500 ppm in 20% ethanol): 2
- Results of sweetness comparisons against the reference solution [=] (unable to tell) ([3]; 500 ppm in 20% ethanol): 2
- Results of sweetness comparisons against the reference solution [−] (sample less sweet) ([3]; 500 ppm in 20% ethanol): 6
- Results of sweetness comparisons against the reference solution [+] (sample sweeter) ([3]; 800 ppm in 20% ethanol): 2
- Results of sweetness comparisons against the reference solution [=] (unable to tell) ([3]; 800 ppm in 20% ethanol): 6
- Results of sweetness comparisons against the reference solution [−] (sample less sweet) ([3]; 800 ppm in 20% ethanol): 2
- Results of sweetness comparisons against the reference solution [+] (sample sweeter) ([3]; 1000 ppm in 20% ethanol): 8
- Results of sweetness comparisons against the reference solution [−] (sample less sweet) ([3]; 1000 ppm in 20% ethanol): 2
- Results of sweetness comparisons against the reference solution [+] (sample sweeter) ([3]; 2000 ppm in 20% ethanol): 10
- Results of sweetness comparisons against the reference solution [+] (sample sweeter) ([3]; 4000 ppm in 20% ethanol): 10
- Times sweeter than saccharose [3, 7]: 200-250 times
- Times sweeter than saccharose ([3]; concluded from the initial 4000 ppm solution vs 10% saccharose reference): at least 50 times
- Sweetness of the initial solution compared with the reference solution (saccharose) ([3]; initial 4000 ppm solution vs 10% saccharose (100000 ppm) in 20% ethanol, all panel members): much sweeter than the reference solution

Structure (SMILES): C[C@H](NC=C1CCCC1=O)c1ccccc1 [Example 8, (S)-2-(1-phenylethyl)aminomethylenecyclopentanone]
- Inhibition of sweet taste [4]: ++
- Taste of the saccharose solution with the compound [4]: practically not sweet at all

Structure (SMILES): CC[C@@H](NC=C1CCOC1=O)c1ccccc1 [Example 4, (R)-3-(1-phenylpropylo)aminomethylenedihydrofuran-2-one]
- Taste of the solution as described by the panel members [1]: intensively sweet taste
- Perception of sweet taste [1]: ++

Structure (SMILES): OC[C@H]1O[C@@](CO)(O[C@H]2O[C@H](CO)[C@@H](O)[C@H](O)[C@H]2O)[C@@H](O)[C@@H]1O [saccharose, reference compound]
- Perception of sweet taste following the addition of the compound of example 3 [2, 8]: <<+
- Sweet taste of the solution with an addition of the compound of example 3 (in words) [2, 8]: do not elicit the perception of a sweet taste, not even a weak one
- Perceived sweet taste [2, 9]: ++

Structure (SMILES): O=C1CCCC1=CNCc1ccccc1 [Example 6, 2-Benzylaminomethylenecyclopentanone]
- Perception of sweet taste [1]: ++
- Perception of sweet taste following the addition of the compound of example 3 [2, 5]: <<+
- Sweet taste of the solution with an addition of the compound of example 3 (in words) [2, 5]: only a trace perceived sweet taste
- Perceived sweet taste [2, 6]: ++
- Times sweeter than saccharose [3, 7]: at least 250 times

Structure (SMILES): NCC(=O)O [glycine, reference compound]
- Perception of sweet taste following the addition of the compound of example 3 [2, 8]: <<+
- Sweet taste of the solution with an addition of the compound of example 3 (in words) [2, 8]: do not elicit the perception of a sweet taste, not even a weak one
- Perceived sweet taste [2, 9]: ++
